Reference: publication PMC9950205, “Efficacy, safety, and pharmacokinetics of teduglutide in adult Japanese patients with short bowel syndrome and intestinal failure: two phase III studies with an extension” (Surgery Today, 2022)

System: adult Japanese patients with SBS-IF
Assay: Safety: treatment-emergent adverse events (TEAEs, TESAEs)
Type: in vivo
Text: Safety analyses included the monitoring of adverse events (AEs), body weight, BMI, vital signs, 12-lead electrocardiogram (ECG), serum biochemistry, hematology, and presence of antibodies to teduglutide. AEs were coded using the Medical Dictionary for Regulatory Activities versions 17.1 (TED-C14-004) and 21.0 (SHP633-306 and SHP633-307). Specifically, AEs were treatment-emergent AEs (TEAEs), defined as any unfavorable and unintended sign (including any abnormal laboratory finding), symptom, or disease that occurred during treatment with teduglutide, whether or not the event was considered to be related to the study drug by the clinical study investigator. AEs were also categorized as mild, moderate, or severe. […] AEs were considered related to treatment with teduglutide, or its administration, based on the investigator's medical judgment.

[1] = ≤ 24 weeks (SHP633-306 and TED-C14-004), 0.05 mg/kg/day

## CC[C@H](C)[C@H](NC(=O)[C@H](Cc1ccccc1)NC(=O)[C@H](CC(=O)O)NC(=O)[C@H](CCCNC(=N)N)NC(=O)[C@H](C)NC(=O)[C@H](C)NC(=O)[C@H](CC(C)C)NC(=O)[C@H](CC(N)=O)NC(=O)[C@H](CC(=O)O)NC(=O)[C@H](CC(C)C)NC(=O)[C@@H](NC(=O)[C@@H](NC(=O)[C@H](CC(N)=O)NC(=O)[C@H](CCSC)NC(=O)[C@H](CCC(=O)O)NC(=O)[C@H](CC(=O)O)NC(=O)[C@H](CO)NC(=O)[C@H](Cc1ccccc1)NC(=O)[C@H](CO)NC(=O)CNC(=O)[C@H](CC(=O)O)NC(=O)CNC(=O)[C@@H](N)Cc1c[nH]cn1)[C@@H](C)O)[C@@H](C)CC)C(=O)N[C@@H](CC(N)=O)C(=O)N[C@@H](Cc1c[nH]c2ccccc12)C(=O)N[C@@H](CC(C)C)C(=O)N[C@H](C(=O)N[C@@H](CCC(N)=O)C(=O)N[C@H](C(=O)N[C@@H](CCCCN)C(=O)N[C@H](C(=O)N[C@H](C(=O)N[C@@H](CC(=O)O)C(=O)O)[C@@H](C)O)[C@@H](C)CC)[C@@H](C)O)[C@@H](C)CC [teduglutide]
Total, 0.05 mg/kg/day
  Immune system disorders: Events: 2 n
  Immune system disorders: Patients: 2 (11.1) n (%)
  Infections and infestations: Events: 81 n
  Infections and infestations: Patients: 12 (66.7) n (%)
  Influenza: Events: 21 n
  Injection site reaction: Events: 4 n
  Injection site reaction: Patients: 4 (22.2) n (%)
  Injury, poisoning, and procedural complications: Events: 6 n
  Injury, poisoning, and procedural complications: Patients: 5 (27.8) n (%)
  Insomnia: Events: 2 n
  Insomnia: Patients: 2 (11.1) n (%)
  Investigations: Events: 14 n
  Investigations: Patients: 7 (38.9) n (%)
  Metabolism and nutrition disorders: Events: 13 n
  Metabolism and nutrition disorders: Patients: 7 (38.9) n (%)
  Musculoskeletal and connective tissue disorders: Events: 12 n
  Musculoskeletal and connective tissue disorders: Patients: 8 (44.4) n (%)
  Nasopharyngitis: Events: 21 n
  Nasopharyngitis: Patients: 7 (38.9) n (%)
  Nausea: Events: 8 n
  Nausea: Patients: 4 (22.2) n (%)
  Nervous system disorders: Events: 26 n
  Nervous system disorders: Patients: 8 (44.4) n (%)
  Oral herpes: Events: 2 n
  Oral herpes: Patients: 2 (11.1) n (%)
  Oropharyngeal pain: Events: 4 n
  Oropharyngeal pain: Patients: 4 (22.2) n (%)
  Pruritus: Events: 2 n
  Pruritus: Patients: 2 (11.1) n (%)
  Psychiatric disorders: Events: 4 n
  Psychiatric disorders: Patients: 3 (16.7) n (%)
  Pyrexia: Events: 11 n
  Pyrexia: Patients: 8 (44.4) n (%)
  Renal and urinary disorders: Events: 6 n
  Renal and urinary disorders: Patients: 5 (27.8) n (%)
  Respiratory, thoracic, and mediastinal disorders: Events: 13 n
  Respiratory, thoracic, and mediastinal disorders: Patients: 7 (38.9) n (%)
  Skin and subcutaneous tissue disorders: Events: 18 n
  Skin and subcutaneous tissue disorders: Patients: 9 (50.0) n (%)
  Somnolence: Events: 3 n
  Somnolence: Patients: 3 (16.7) n (%)
  Stomatitis: Events: 4 n
  Stomatitis: Patients: 4 (22.2) n (%)
  Upper respiratory tract inflammation: Events: 3 n
  Upper respiratory tract inflammation: Patients: 2 (11.1) n (%)
  Vascular disorders: Events: 6 n
  Vascular disorders: Patients: 4 (22.2) n (%)
  Vascular pain: Events: 3 n
  Vascular pain: Patients: 2 (11.1) n (%)
  Vomiting: Events: 3 n
  Vomiting: Patients: 3 (16.7) n (%)
All studies
  Severity of the majority of all TEAEs: mild or moderate
During any of the studies
  Changes in clinical laboratory measures, vital signs, body weight, BMI, or ECG findings: no clinically meaningful changes
During the studies
  AEs related to growth of pre-existing polyps of the colon or gastrointestinal cancers: no AEs
[1]
  Abdominal distension: Events: 4 n
  Abdominal distension: Patients: 4 (22.2) n (%)
  Abdominal pain: Events: 5 n
  Abdominal pain: Patients: 5 (27.8) n (%)
  Anal abscess: Events: 0 n
  Anal abscess: Patients: 0 n (%)
  Anemia: Events: 2 n
  Anemia: Patients: 2 (11.1) n (%)
  Any TEAE: Events: 121 n
  Any TEAE: Patients: 17 (94.4) n (%)
  Arthralgia: Events: 0 n
  Arthralgia: Patients: 0 n (%)
  Back pain: Events: 1 n
  Back pain: Patients: 1 (5.6) n (%)
  Blood and lymphatic system disorders: Events: 4 n
  Blood and lymphatic system disorders: Patients: 3 (16.7) n (%)
  Catheter site infection: Events: 1 n
  Catheter site infection: Patients: 1 (5.6) n (%)
  Catheter site pain: Events: 1 n
  Catheter site pain: Patients: 1 (5.6) n (%)
  Dehydration: Events: 2 n
  Dehydration: Patients: 2 (11.1) n (%)
  Dermatitis contact: Events: 0 n
  Dermatitis contact: Patients: 0 n (%)
  Device occlusion (central venous catheter for PS): Events: 3 n
  Device occlusion (central venous catheter for PS): Patients: 2 (11.1) n (%)
  Device-related infection (central venous catheter for PS): Events: 9 n
  Device-related infection (central venous catheter for PS): Patients: 6 (33.3) n (%)
  Diarrhea: Events: 1 n
  Diarrhea: Patients: 1 (5.6) n (%)
  Dry skin: Events: 1 n
  Dry skin: Patients: 1 (5.6) n (%)
  Enteritis: Events: 1 n
  Enteritis: Patients: 1 (5.6) n (%)
  Enterocolitis: Events: 2 n
  Enterocolitis: Patients: 1 (5.6) n (%)
  Eye disorder: Events: 2 n
  Eye disorder: Patients: 2 (11.1) n (%)
  Gastrointestinal disorders: Events: 27 n
  Gastrointestinal disorders: Patients: 12 (66.7) n (%)
  General disorders and administration site conditions: Events: 21 n
  General disorders and administration site conditions: Patients: 9 (50.0) n (%)
  Headache: Events: 3 n
  Headache: Patients: 3 (16.7) n (%)
  Hematuria: Events: 1 n
  Hematuria: Patients: 1 (5.6) n (%)
  Hemorrhage subcutaneous: Events: 1 n
  Hemorrhage subcutaneous: Patients: 1 (5.6) n (%)
  Hepatobiliary disorders: Events: 3 n
  Hepatobiliary disorders: Patients: 2 (11.1) n (%)
  Hypersensitivity: Events: 0 n
  Hypersensitivity: Patients: 0 n (%)
  Hypozincemia: Events: 1 n
  Hypozincemia: Patients: 1 (5.6) n (%)
  Immune system disorders: Events: 0 n
  Immune system disorders: Patients: 0 n (%)
  Infections and infestations: Events: 19 n
  Infections and infestations: Patients: 8 (44.4) n (%)
  Influenza: Events: 0 n
  Influenza: Patients: 0 n (%)
  Injection site reaction: Events: 4 n
  Injection site reaction: Patients: 4 (22.2) n (%)
  Injury, poisoning, and procedural complications: Events: 5 n
  Injury, poisoning, and procedural complications: Patients: 4 (22.2) n (%)
  Insomnia: Events: 0 n
  Insomnia: Patients: 0 n (%)
  Investigations: Events: 9 n
  Investigations: Patients: 6 (33.3) n (%)
  Metabolism and nutrition disorders: Events: 6 n
  Metabolism and nutrition disorders: Patients: 4 (22.2) n (%)
  Musculoskeletal and connective tissue disorders: Events: 2 n
  Musculoskeletal and connective tissue disorders: Patients: 2 (11.1) n (%)
  Nasopharyngitis: Events: 3 n
  Nasopharyngitis: Patients: 3 (16.7) n (%)
  Nausea: Events: 1 n
  Nausea: Patients: 1 (5.6) n (%)
  Nervous system disorders: Events: 7 n
  Nervous system disorders: Patients: 4 (22.2) n (%)
  Oral herpes: Events: 1 n
  Oral herpes: Patients: 1 (5.6) n (%)
  Oropharyngeal pain: Events: 1 n
  Oropharyngeal pain: Patients: 1 (5.6) n (%)
  Pruritus: Events: 1 n
  Pruritus: Patients: 1 (5.6) n (%)
  Psychiatric disorders: Events: 0 n
  Psychiatric disorders: Patients: 0 n (%)
  Pyrexia: Events: 6 n
  Pyrexia: Patients: 6 (33.3) n (%)
  Renal and urinary disorders: Events: 2 n
  Renal and urinary disorders: Patients: 2 (11.1) n (%)
  Respiratory, thoracic, and mediastinal disorders: Events: 5 n
  Respiratory, thoracic, and mediastinal disorders: Patients: 5 (27.8) n (%)
  Skin and subcutaneous tissue disorders: Events: 5 n
  Skin and subcutaneous tissue disorders: Patients: 4 (22.2) n (%)
  Somnolence: Events: 0 n
  Somnolence: Patients: 0 n (%)
  Stomatitis: Events: 1 n
  Stomatitis: Patients: 1 (5.6) n (%)
  Upper respiratory tract inflammation: Events: 2 n
  Upper respiratory tract inflammation: Patients: 2 (11.1) n (%)
  Vascular disorders: Events: 2 n
  Vascular disorders: Patients: 2 (11.1) n (%)
  Vascular pain: Events: 0 n
  Vascular pain: Patients: 0 n (%)
  Vomiting: Events: 2 n
  Vomiting: Patients: 2 (11.1) n (%)
